According to the Deep4Chem optical property database:

Experiment: solvent given as SMILES

CCCCCCCCc1ccc(-n2c3c4ccccc4nc(-c4ccc(C#N)cc4)c3c3c2c2c(-c4ccc(C#N)cc4)nc4ccccc4c2n3-c2ccc(CCCCCCCC)cc2)cc1
emission maximum (in ClC(Cl)Cl): 510 nm

N#Cc1c(N2CCCC2)cc(-c2ccccc2)c2c1-c1cccc3cccc-2c13
emission maximum (in O): 550 nm

c1ccc(N(c2ccccc2)c2ccc(-c3ncnc4ccccc34)cc2)cc1
emission maximum (in C1CCCCC1): 445 nm
emission maximum (in C1CCOC1): 508 nm
emission maximum (in CC#N): 559 nm
emission maximum (in CS(C)=O): 563 nm
emission maximum (in ClCCl): 528 nm

CCCCCCCCCCCCOc1cc2c3c(ccc4c5c(SCCCCCCCCCCCC)cc6c7c(ccc(c1c34)c75)C(=O)N(C1CCCCC1)C6=O)C(=O)N(C1CCCCC1)C2=O
emission maximum (in ClC(Cl)Cl): 640 nm

F[B-]1(F)n2c(Oc3ccccc3)c(Cl)c(Br)c2C(Oc2ccccc2)=C2C(Br)=C(Cl)C(Oc3ccccc3)=[N+]21
emission maximum (in ClCCl): 544 nm

CC(=O)Nc1cc2ccc3cccc4ccc(c1)c2c34
emission maximum (in CC#N): 388 nm
emission maximum (in CCCCOCCCC): 389 nm
emission maximum (in CO): 387 nm

CCCCc1ccc(-n2c3c4cc(F)ccc4nc(-c4ccc(OC)cc4)c3c3c2c2c(-c4ccc(OC)cc4)nc4ccc(F)cc4c2n3-c2ccc(CCCC)cc2)cc1
emission maximum (in ClC(Cl)Cl): 527 nm

COc1cc2c3c(c4cc(OC)c(OC)c(OC)c4c2c(OC)c1OC)=[N+]1C(=C(c2c(C)cc(C)cc2C)c2cc4c5cc(OC)c(OC)c(OC)c5c5c(OC)c(OC)c(OC)cc5c4n2[B-]1(F)F)C=3
emission maximum (in C1CCCCC1): 749 nm
emission maximum (in C1CCOC1): 763 nm
emission maximum (in CC#N): 755 nm
emission maximum (in Cc1ccccc1): 767 nm
emission maximum (in ClCCl): 771 nm

CC/[NH+]=c1\cc2oc3cc(NCCC(=O)NCC(=O)OC)c4ccccc4c3nc-2cc1C
emission maximum (in CCO): 644 nm
emission maximum (in O): 652 nm

FC(F)(F)C(F)(F)C(F)(F)C(F)(F)C(F)(F)C(F)(F)CCOc1nnc(Cl)nn1
emission maximum (in ClCCl): 566 nm
emission maximum (in OCC(F)(F)F): 555 nm

CC(C)(C)c1ccc(C2=c3sc(-c4ccc(C(C)(C)C)cc4)cc3=[N+]3C2=Nc2c(-c4ccc(C(C)(C)C)cc4)c4sc(-c5ccc(C(C)(C)C)cc5)cc4n2[B-]3(F)F)cc1
emission maximum (in ClC(Cl)Cl): 793 nm

Clc1ccc(-c2nc3ccccc3c3cc4ccccn4c23)s1
emission maximum (in CS(C)=O): 523.5 nm

N#Cc1c(N2CCCCC2)cc(-c2cccc3ccccc23)c2c1-c1ccccc1C2
emission maximum (in C1CCOC1): 442 nm

N#Cc1c(N2CCCC2)cc(-c2ccccc2)c2c1-c1ccccc1C2=O
emission maximum (in C1CCOC1): 527 nm

CN(C)c1ccc(/C=C/c2nc3c(ccc4ccccc43)s2)cc1
emission maximum (in C1CCCCC1): 468 nm
emission maximum (in CC#N): 524 nm

CC1(C)C(/C=C/C=C/C=C/C=C2/N(CCC(=O)O)c3ccc4ccccc4c3C2(C)C)=[N+](CCC(=O)O)c2ccc3ccccc3c21
emission maximum (in CO): 817 nm

COc1ccc(-n2nc(C(=O)c3ccc(Cl)cc3)c(N3CCCC3)n2)cc1
emission maximum (in CC#N): 421 nm

N#CC1=c2c3cccc4cccc(c43)n2[B-](F)(F)[n+]2ccccc21
emission maximum (in C1CCOC1): 530 nm
emission maximum (in CC#N): 527 nm
emission maximum (in CCCCCC): 530 nm
emission maximum (in Cc1ccccc1): 535 nm
emission maximum (in ClCCl): 530 nm

Cc1c(C)c(B(c2c(C)c(C)c(N3c4ccccc4Oc4ccccc43)c(C)c2C)c2c(C)c(C)c(N3c4ccccc4Oc4ccccc43)c(C)c2C)c(C)c(C)c1C#N
emission maximum (in c1ccc([Si](c2ccccc2)(c2ccc(-n3c4ccccc4c4ccccc43)cc2)c2ccc(-n3c4ccccc4c4ccccc43)cc2)cc1): 517 nm

F[B-]1(F)n2c(-c3ccccc3)cnc2-c2cccc[n+]21
emission maximum (in C1CCCCC1): 486 nm
emission maximum (in C1CCOC1): 509 nm
emission maximum (in C1COCCO1): 509 nm
emission maximum (in CC#N): 514 nm
emission maximum (in CCCCCC): 487 nm
emission maximum (in CO): 503 nm
emission maximum (in ClC(Cl)Cl): 501 nm

CN(C)c1ccc2[c](c1)[Sn]([CH3])([CH3])[C]1=CC(=[N+](C)C)C=CC1=C2
emission maximum (in O): 628 nm

CC(C)(C)c1ccc2c(c1)c1cc(C(C)(C)C)ccc1n2-c1cc(N2c3ccccc3C(c3ccccc3)(c3ccccc3)c3ccccc32)cc(-n2c3ccc(C(C)(C)C)cc3c3cc(C(C)(C)C)ccc32)c1C#N
emission maximum (in Cc1ccccc1): 458 nm

COC(=O)c1cc(=O)n(C)c2cc(-c3cccc(OC)c3)sc12
emission maximum (in CC#N): 463 nm
emission maximum (in ClCCl): 464 nm

CCCCCCc1ccc(/C=C/c2ccc(CCCCCC)s2)s1
emission maximum (in Cc1ccccc1): 416 nm

C1=C(c2ccccc2)C(c2ccccc2)C(c2ccccc2)=C1
emission maximum (in C1CCOC1): 385 nm

COc1cc(C(=O)O)cc(OC)c1O
emission maximum (in O): 333 nm

COCCC1=Cc2nc1ccc1[nH]c(cc1CCOC)c1nc(c(N3C(=O)CCCC3=O)cc3[nH]c2cc3CCOC)C(CCOC)=C1
emission maximum (in Cc1ccccc1): 646 nm

COc1ccc(/C=C/c2cc(/C=C/c3ccc(OC)cc3)nc(/C=C/c3ccc(N(c4ccccc4)c4ccccc4)cc3)n2)cc1
emission maximum (in C1CCOC1): 511 nm
emission maximum (in CC#N): 627 nm
emission maximum (in CC(C)=O): 572 nm
emission maximum (in CCCCCCC): 439 nm
emission maximum (in CS(C)=O): 622 nm
emission maximum (in Cc1ccccc1): 466 nm
emission maximum (in ClCCl): 558 nm

CC(=O)c1ccc(-c2nc3ccc(N(C)C)c(Br)c3s2)cc1
emission maximum (in C1CCCCC1): 424 nm
emission maximum (in CC#N): 568 nm
emission maximum (in CC(C)O): 580.16 nm
emission maximum (in CO): 622 nm
emission maximum (in CS(C)=O): 563.56 nm
emission maximum (in ClC(Cl)Cl): 505 nm
emission maximum (in c1ccccc1): 472.87 nm
